Measurements as given in patent US20090068290A1, “BIFEPRUNOX DOSES FOR TREATING SCHIZOPHRENIA” (priority 2006, published 2009).

Experiments:
[1] = system: adult subjects with schizophrenia; test: Calgary Depression Scale for Schizophrenia (CDSS), Clinical Study Three; type: in vivo, human; conditions: for Change from Baseline in CDSS Total Score, Mean (SD) / Change from Baseline in CDSS Total Score, Median: 30 mg; for Change from Baseline in CDSS Total Score, Mean (SD) / Change from Baseline in CDSS Total Score, Median / mean change (SD) from Baseline to Endpoint in CDSS score: LOCF; for CDSS score, treatment effect (bifeprunox, placebo): Endpoint LOCF; for mean change (SD) from Baseline to Endpoint in CDSS score: ITT
From the text: SECONDARY OBJECTIVES To assess the efficacy of bifeprunox in treating schizophrenia using the Positive Symptom sub-scale score of the PANSS, the Negative Symptom sub-scale score of the PANSS, the General Psychopathology sub-scale of the PANSS, Brief Psychiatric Rating Scale (BPRS) total score derived from the PANSS, BPRS psychosis score derived from the PANSS, the Clinical Global Impression Severity of Illness score (CGI-S), the Clinical Global Impression Improvement score (CGI-I), CGI-I responder rate, PANSS responder rate based on the PANSS total score, Calgary Depression Scale for Schizophrenia (CDSS), and Subject Satisfaction rating.
There were four treatment arms in this study, approximately 144 subjects per arm. […] After completing the Single-Blind Placebo Lead-in Period of at least three days, bifeprunox-treated subjects were titrated from 0.25 mg up to 20 mg/day or 30 mg/day according to a standardized titration scheme over a seven- or eight-day period, respectively. When the assigned dose was reached, subjects were maintained at that dose for the remainder of the six week treatment period. […] Subjects were hospitalized (if not already inpatients) after eligibility for study entry was verified, starting from the Screening Visit until at least 10 days after Baseline. Subjects could be hospitalized longer than 10 days if considered medically necessary by the Investigator. Rating scale assessments for efficacy and abnormal movement disorders were done weekly except for Week 5. […] Subject satisfaction with study medication was assessed at Week 6.

[2] = system: adult subjects with schizophrenia; test: BPRS psychosis cluster score, Clinical Study One; type: in vivo, human; conditions: for Change from Baseline in BPRS Psychosis Cluster Score, Mean (S.D.) / Change from Baseline in BPRS Psychosis Cluster Score, Median / Change from Baseline in BPRS Psychosis Cluster Score, Trt Effect (bifeprunox—placebo) / Change from Baseline in BPRS Psychosis Cluster Score, Mean S.D.: ITT population
Protocol: There were five treatment groups in this study. […] Study medication was administered once daily. After Baseline measurements were performed, the titration phase was begun. Bifeprunox treated subjects were titrated up to 5 mg, 10 mg or 20 mg according to a standardized titration schedule (Day 1: 0.125 mg, Day 2: 0.25 mg, Day 3: 0.5 mg, Day 4: 1.0 mg, Day 5: 2.0 mg, Day 6: 5.0 mg, Day 7: 10.0 mg, Day 8: 20 mg). When the assigned dose was reached, subjects were maintained at that dose for the remainder of the six-week treatment period.

[3] = Bifeprunox 10 mg, Endpoint LOCF
[4] = Bifeprunox 20 mg, Endpoint LOCF

## O=c1[nH]c2cccc(N3CCN(Cc4cccc(-c5ccccc5)c4)CC3)c2o1 [Bifeprunox, 7-[4-([1,1′-biphenyl]-3-ylmethyl)-1-piperazinyl]-2(3H)-benzoxazolone]
[1]; Week 2
  Change from Baseline in CDSS Total Score, Mean (SD): −0.69 (2.97)
  Change from Baseline in CDSS Total Score, Median: 0.0
[1]; Week 3
  Change from Baseline in CDSS Total Score, Mean (SD): −0.60 (3.10)
  Change from Baseline in CDSS Total Score, Median: 0.0
[1]; Week 4
  Change from Baseline in CDSS Total Score, Mean (SD): −0.65 (3.07)
  Change from Baseline in CDSS Total Score, Median: 0.0
[1]; Week 6, Endpoint
  Change from Baseline in CDSS Total Score, Mean (SD): −0.79 (3.02)
  Change from Baseline in CDSS Total Score, Median: −1.0
[1]; bifeprunox 20 mg (first mention)
  CDSS score, treatment effect (bifeprunox, placebo): −0.54
[1]; bifeprunox 20 mg
  mean change (SD) from Baseline to Endpoint in CDSS score: −1.30 (3.85)
[1]; bifeprunox 30 mg
  mean change (SD) from Baseline to Endpoint in CDSS score: −0.79 (3.02)
[1]; bifeprunox
  CDSS score, treatment effect (bifeprunox, placebo): −0.34
[2]; Bifeprunox 5 mg, Endpoint LOCF
  BPRS psychosis cluster score, treatment effect (bifeprunox—placebo): −0.9
  Change from Baseline in BPRS Psychosis Cluster Score, Mean (S.D.): 2.5 (3.8)
  Change from Baseline in BPRS Psychosis Cluster Score, Median: −3
  Change from Baseline in BPRS Psychosis Cluster Score, Trt Effect (bifeprunox—placebo): −0.9
[2]; Bifeprunox 5 mg, Week 1, LOCF
  Change from Baseline in BPRS Psychosis Cluster Score, Mean (S.D.): −1.0 (2.6)
  Change from Baseline in BPRS Psychosis Cluster Score, Median: −1
[2]; Bifeprunox 5 mg, Week 2, LOCF
  Change from Baseline in BPRS Psychosis Cluster Score, Mean S.D.: −1.8 (3.3)
  Change from Baseline in BPRS Psychosis Cluster Score, Median: −2
[2]; Bifeprunox 5 mg, Week 3, LOCF
  Change from Baseline in BPRS Psychosis Cluster Score, Mean (S.D.): −2.2 (3.6)
  Change from Baseline in BPRS Psychosis Cluster Score, Median: −2
[2]; Bifeprunox 5 mg, Week 4, LOCF
  Change from Baseline in BPRS Psychosis Cluster Score, Mean (S.D.): −24 (3.8)
  Change from Baseline in BPRS Psychosis Cluster Score, Median: −3
[2]; [3]
  BPRS psychosis cluster score, treatment effect (bifeprunox—placebo): 0.4
  Change from Baseline in BPRS Psychosis Cluster Score, Mean (S.D.): −1.2 (4.6)
  Change from Baseline in BPRS Psychosis Cluster Score, Median: 0
  Change from Baseline in BPRS Psychosis Cluster Score, Trt Effect (bifeprunox—placebo): 0.4
[2]; Bifeprunox 10 mg, Week 1, LOCF
  Change from Baseline in BPRS Psychosis Cluster Score, Mean (S.D.): −0.7 (3.0)
  Change from Baseline in BPRS Psychosis Cluster Score, Median: −1
[2]; Bifeprunox 10 mg, Week 2, LOCF
  Change from Baseline in BPRS Psychosis Cluster Score, Mean S.D.: −1.1 (3.7)
  Change from Baseline in BPRS Psychosis Cluster Score, Median: −1
[2]; Bifeprunox 10 mg, Week 3, LOCF
  Change from Baseline in BPRS Psychosis Cluster Score, Mean (S.D.): −1.1 (4.2)
  Change from Baseline in BPRS Psychosis Cluster Score, Median: −1
[2]; Bifeprunox 10 mg, Week 4, LOCF
  Change from Baseline in BPRS Psychosis Cluster Score, Mean (S.D.): −1.1 (4.3)
  Change from Baseline in BPRS Psychosis Cluster Score, Median: −1
[2]; [4]
  Change from Baseline in BPRS Psychosis Cluster Score, Mean (S.D.): −2.7 (3.9)
  Change from Baseline in BPRS Psychosis Cluster Score, Median: −3
  Change from Baseline in BPRS Psychosis Cluster Score, Trt Effect (bifeprunox—placebo): −1.1
[2]; Bifeprunox 20 mg, Week 1, LOCF
  Change from Baseline in BPRS Psychosis Cluster Score, Mean (S.D.): −1.5 (2.6)
  Change from Baseline in BPRS Psychosis Cluster Score, Median: −1
[2]; Bifeprunox 20 mg, Week 2, LOCF
  Change from Baseline in BPRS Psychosis Cluster Score, Median: −2
[2]; Bifeprunox 20 mg, Week 3, LOCF
  Change from Baseline in BPRS Psychosis Cluster Score, Mean (S.D.): −2.7 (3.5)
  Change from Baseline in BPRS Psychosis Cluster Score, Median: −3
[2]; Bifeprunox 20 mg, Week 4, LOCF
  Change from Baseline in BPRS Psychosis Cluster Score, Mean (S.D.): −2.8 (3.7)
  Change from Baseline in BPRS Psychosis Cluster Score, Median: −3
[2]; bifeprunox 20 mg, Endpoint LOCF
  BPRS psychosis cluster score, treatment effect (bifeprunox—placebo): −1.1
